Experimental data: patent US8293231B2, “Methods and compositions for treating ischemia” (Blue Blood Biotech Corp., priority 2005, dated 2012)

Experiments:
[1] = system: PAI activity in conditioned media of HUVECs; test: Plasminogen activator inhibitor (PAI) activity assay; format: cell-based, human; details: 12 h; 100 or 1000 ng/mL TMD23, 70 ng/mL PMA, 10 ng/mL VEGF
Method: (§1) HUVECs were seeded at 80% confluence on 100-mm dishes in M199 medium. After 24 h, cells were rinsed with serum-free M199 twice and incubated in serum-free M199 with various concentrations of TMD23, VEGF (10 ng/mL), or PMA (70 ng/mL) for 12 h. The conditioned medium containing […] secreted proteins was analyzed by gelatin- and casein-based zymographies. The digested area appeared clear on a blue background, indicating the location of matrix metalloproteinase (MMP) activity. To further verify MMP caseinolytic activity, the casein-containing gel was incubated with incubation buffer containing 10 mM EDTA, an inhibitor of MMPs, to observe disappearance of the clear band. Plasminogen activator inhibitor (PAI) activity was measured by titrating samples with increasing amounts of tissue-type plasminogen activator (t-PA) (Boehringer Ingelheim) into a fixed volume of endothelial-cell-conditioned media.
as §1, with “zymographies. Lee O H, et al., Identification of angiogenic properties of insulin-like growth factor II in in vitro angiogenesis models. Brit J. Cancer. 2000; 82:385-391.” for “zymographies.”, “media. Shi G Y., et al., Plasmin and the regulation of tissue-type plasminogen activator biosynthesis in human endothelial cells. […]” for “media.”

[2] = system: human melanoma A2058 cells in Matrigel; test: Effect of TMD23 on tumor neoangiogenesis; format: in vivo, athymic nude mice
Method: To assess TMD23 effects on tumor neoangiogenesis, 1×10^6 human melanoma A2058 cells (ATCC® CRL-11147) were mixed with Matrigel (0.5 mL) containing heparin (60 U/mL) and various concentrations of TMD23 and subcutaneously injected into athymic nude mice. Matrigel plugs were harvested after 18 days and frozen in liquid nitrogen. Blood vessels were detected by immunohistochemistry using anti-CD31 antibody as described above. Microvessel density (MVD) was calculated by counting six highly vascularized fields in each section (200× magnification; MetaMorph software).

[3] = system: ERK1/2, p38 MAPK, Akt, and eNOS phosphorylation in HUVECs; test: Assay of ERK1/2, p38 MAPK, Akt and eNOS phosphorylation (Western blotting); format: cell-based, human
Method: HUVECs were cultured to confluence in a 6-cm-diameter dish and incubated in M199 containing 1% FBS for 18 h. Cells were washed and incubated with serum-free M199 for 6 h, and treated with the indicated concentration of TMD23. Cell lysates were separated by SDS-PAGE, and the levels of phospho-ERK1/2 (Tyr 204) and total ERK1/2, phospho-p38 (Thr-180/Tyr-182) and p38, phosphor-Akt (Ser-473) and Akt, and phospho-eNOS (Ser-1173) and eNOS were detected by Western blotting with specific antibodies (Cell Signaling Technology).

HUVECs = test: Chemotaxis assay (Transwell); format: cell-based, human
Method: (§2) The chemotactic motility of HUVECs was assayed using Transwell (Costar) with 6.5-mm diameter polycarbonate filters (8-μm pore size). The lower filter surface was coated with 10 μg gelatin (Sigma-Aldrich). Various concentrations of TMD23 in the absence or presence of 10 μg/mL polyclonal rabbit anti-TMD23 antibody or 10 ng/mL vascular endothelial growth factor (VEGF) (R & D Systems, Inc.) in M199 were placed in the lower wells. One hundred mL cell suspension containing 1×10^5 cells was loaded into each of upper well. The chamber was incubated at 37° C. for 4 h. Cells were fixed with methanol and stained with 4′,6′-diamidino-2-phenylindole (DAPI). Chemotaxis was quantified with optical microscopy (Leica) at 100× magnification using MetaMorph imaging software (Universal Imaging Corporation) by counting the cells that migrated to the filter's lower side. Five random fields in each well were counted. Each sample was assayed in triplicate, and assays were repeated three times. To determine the role of extracellular signal-regulated kinase 1/2 (ERK1/2), p38 mitogen-activated protein kinase (MAPK), and phosphatidylinositol 3-kinase (PI3 kinase)-protein kinase B/Akt (Akt) in TMD23-mediated cell migration, assays were performed in the presence of U0126, a MAPK/ERK kinase (MEK) inhibitor, SB 203580, a p38 MAPK inhibitor, and LY 294002, a PI3 kinase inhibitor. Cell viability as determined by trypan blue staining was not altered by treatment. 00126 was purchased from Promega, with SB 203580 and LY 294002 from Calbiochem.
as §2, with “hundred μL” for “hundred mL”, “MAPK/ERK kinase-(MEK)” for “MAPK/ERK kinase (MEK)”, “treatment. U0126” for “treatment. 00126”

Substance: TMD23: Recombinant human thrombomodulin fragment, amino acids Ala242-Ser515 of SEQ ID NO: 2: six EGF-like structures (D2) plus Ser/Thr-rich domain D3
- PAI activity in conditioned media of HUVECs [1]: decreased significantly
- Blood vessels in Matrigel plugs (CD31 staining) ([2]; 18 days): significantly more blood vessels
- Weight of tumor contained in a Matrigel plug ([2]; FIG. 8A): increased the weight of tumor
- Microvessel density (MVD) ([2]; FIG. 8C): increased microvessel density
- Tumor size developed by Matrigel plugs containing A2058 cells ([2]; compared with A2058 cells alone, 18 days): bigger
- Time of maximal phosphorylation (ERK, p38, and Akt) ([3]; FIG. 3B): about 30 min
- Time of maximal phosphorylation (eNOS) ([3]; FIG. 3B): ~120 min
- ERK1/2, p38, Akt, and eNOS phosphorylation in HUVECs ([3]; total proteins remained constant, FIG. 3A): dose-dependently induced
- Effect on HUVEC migration compared with VEGF (10 ng/mL) (HUVECs; 10 ng/mL TMD23): comparable with that of VEGF
- Migratory activity increased over the control (HUVECs; 10 ng/mL TMD23, 4 h): 80%
- Chemotactic response in HUVECs (HUVECs; FIG. 2B): markedly induced a dose-dependent chemotactic response
